Active and inactive are the calls of the source. The rule behind the calls is not given here.
Experiments:
[1] = system: L1210; experiment: Antitumor activity against mouse L1210 cells allografted in mouse assessed as increase of host lifespan; type: functional
[2] = Octanol-saturated water partition coefficient, log D of the compound; type: physicochemical
[3] = Distribution coefficient, log P of the compound; type: physicochemical; conditions: octanol/water
[4] = Aqueous phase distribution coefficient, log P of the compound in 0.01 M NaOH; type: physicochemical
[5] = organism: Mus musculus; experiment: Toxicity in mouse L1210 cells allografted mouse assessed as mortality up to 5 days; type: organism-based; conditions: l1210, 120 h
[6] = system: L1210; experiment: Antitumor activity against mouse L1210 cells allografted in mouse assessed as increase of host lifespan of 110 days; type: functional, cell-based

| SMILES | log(1/C) [1] | also measured |
| --- | --- | --- |
| CN(C)/N=N/c1cccc(C(N)=O)c1 | 3.8 |  |
| CN(CCc1ccccc1)/N=N/c1n[nH]cc1C(N)=O | 3.52 |  |
| CCCCN(C)/N=N/c1ccc(C(N)=O)cc1 | 3.47 | logD [2]: 2.46 |
| C/N=N/Nc1ccccc1 | 3.6 |  |
| CCOC(=O)c1[nH]cnc1/N=N/N(C)C | 3.98 | logP [3]: 0.44 |
| CCCN(C)/N=N/c1ccccc1C(=O)O | 3.74 | logP [4]: -1.66 |
| CCN(C)/N=N/c1ccc(C(N)=O)cc1 | 3.66 |  |
| CN(C)/N=N/c1ccc(Cl)cc1 |  | Activity [5]: Toxic |
| CN(C)/N=N/c1ccccc1CO |  | Activity [5]: Toxic; logP [4]: 1.73 |
| CCOC(=O)c1ccc(/N=N/N(C)CC)cc1 | 3.01 |  |
| CC(=O)c1ccc(/N=N/N(C)C)cc1 |  | Activity [5]: Toxic |
| COC(=O)c1ccccc1/N=N/N(C)CC(C)C | 3.12 |  |
| CN(C)/N=N/c1c[nH]nc1C(N)=O | 3.42 |  |
| CCOC(=O)CCCc1ccc(/N=N/N(C)C)cc1 | 3.54 |  |
| CN(C)/N=N/c1ccccc1[N+](=O)[O-] | 3.28 |  |
| CN(C)/N=N/c1ccc([N+](=O)[O-])cc1C(N)=O | 3.26 |  |
| CCCCN(C)/N=N/c1ccccc1C(N)=O | 3.1 |  |
| CN(C)/N=N/c1ccccc1C(=O)O | 3.64 |  |
| CN(CCO)/N=N/c1ccccc1C(N)=O | 3.07 |  |
| CON(C)/N=N/c1ccc(C(N)=O)cc1 |  | Activity [5]: Toxic |
| CN(C)/N=N/c1ccccc1C(=O)NCC#N | 3.22 | logP [3]: 1.79 |
| C=CCN(CC=C)/N=N/c1ccc(C(N)=O)cc1 |  | Activity [5]: Toxic |
| Cc1cccc(/N=N/N(C)C)c1 | 3.4 |  |
| CN(C)/N=N/c1nc(Cc2ccccc2)[nH]c1C(N)=O | 2.89 |  |
| CCCN(C)/N=N/c1nc[nH]c1C(N)=O | 3.58 |  |
| CN/N=N/c1nc[nH]c1C(=O)OC | 3.35 |  |

| SMILES | log(1/C) [1] | also measured |
| --- | --- | --- |
| CCOC(=O)c1ccc(/N=N/N(C)CC(C)C)cc1 | 2.8 |  |
| COC(=O)c1c[nH]nc1/N=N/N(C)C | 3.49 | logD [2]: 0.04 |
| CCCCN(C)/N=N/c1n[nH]cc1C(N)=O | 3.81 |  |
| CCOC(=O)c1[nH]cnc1/N=N/N(C)CCO | 3.38 |  |
| C=CCN(C)/N=N/c1n[nH]cc1C(N)=O | 3.77 |  |
| CCCCCCCCN(C)/N=N/c1ccc(C(N)=O)cc1 | 2.84 |  |
| CCCCCCCCN(C)/N=N/c1nc[nH]c1C(N)=O | 3 | logP ([3]; read-out: logP): 3.2; logP [4]: 3.22 |
| COc1ccc(/N=N/N(C)C(=O)c2ccccc2)cc1 | 3.05 |  |
| CN(C)/N=N/c1cc(C#N)cc(C#N)c1 | 2.78 | logP [3]: 2.18 |
| COC(=O)c1n[nH]c(C(C)C)c1/N=N/N(C)C | 3.3 |  |
| CN(C)/N=N/c1ccc(S(N)(=O)=O)cc1 | 3.6 | logP [3]: 0.98 |
| CCCCN(C)/N=N/c1ccccc1C(=O)O | 3.15 |  |
| CN(C)/N=N/c1cccc(NC(N)=O)c1 |  | Activity [5]: Toxic |
| CN(C)/N=N/c1ccc(C(N)=O)cc1 | 3.51 |  |
| COc1ccc(/N=N/N(C)C)c(C(=O)O)c1 |  | Activity [5]: Toxic |
| CCCc1nc(/N=N/N(C)C)c(C(N)=O)[nH]1 | 3.42 |  |
| CCCCCCCCOC(=O)c1[nH]cnc1/N=N/N(C)C | 3.06 |  |
| CN(CCc1ccccc1)/N=N/c1nc[nH]c1C(N)=O | 3.49 |  |
| CN(C)/N=N/c1[nH]cnc1C(N)=O [DACARBAZINE] | 3.29 |  |
| COC(=O)c1ccc(/N=N/N(C)C)cc1 | 3.2 |  |
| C=CCN(C)/N=N/c1ccccc1C(N)=O | 3.43 |  |
| CCCCN(C)/N=N/c1n[nH]cc1C(=O)OCC | 3.16 |  |
| COC(=O)c1[nH]cnc1/N=N/N(C)C | 3.86 |  |
| CCCN(C)/N=N/c1n[nH]cc1C(N)=O | 3.7 |  |
| CCOC(=O)c1c[nH]nc1/N=N/N(C)C | 3.35 |  |
| CN(CC#N)/N=N/c1ccc(C(N)=O)cc1 |  | Activity [5]: Toxic |

| SMILES | log(1/C) [1] | also measured |
| --- | --- | --- |
| CN(C)/N=N/c1ccc(NC=O)cc1 | 3.85 |  |
| CN(C)/N=N/c1n[nH]cc1C(N)=O | 3.49 | logP ([3]; read-out: logP): -0.12 |
| C=CCN(C)/N=N/c1ccc(NC(N)=O)cc1 | 3.77 |  |
| CN(C)/N=N/c1ccc(S(N)(=O)=O)cc1C(N)=O | 3.32 |  |
| CN(C)/N=N/c1ccccc1C(=O)NC#N |  | logD [2]: 0.8 |
| CN(C)/N=N/c1c(F)cccc1F | 3.63 |  |
| CN(C)/N=N/c1ccc(S(=O)(=O)Nc2ncccn2)cc1 | 3.74 |  |
| CN(/N=N/c1ccccc1C(=O)O)C1CCCCC1 |  | Activity [5]: Toxic |
| CCCN(C)/N=N/c1ccccc1C(N)=O | 3.26 |  |
| CN(Cc1ccccc1)/N=N/c1nc[nH]c1C(N)=O | 3.43 | logP ([3]; read-out: logP): 1.54 |
| CCCCN(C)/N=N/c1ccc([N+](=O)[O-])cc1C(N)=O | 3.08 |  |
| CCCCN(C)/N=N/c1ccc(CCC(=O)OCC)cc1 | 3.02 |  |
| CN(C)/N=N/c1ccc(C#N)cc1 |  | Activity [5]: Toxic; logD [2]: 2.39 |
| CN(C)/N=N/c1ccc(SC#N)cc1C(N)=O |  | Activity [6]: inactive |
| C=CCN(C)/N=N/c1ccc(C(N)=O)cc1 | 3.38 | logP [3]: 2.09 |
| CN(C)/N=N/c1ccc(C(F)(F)F)cc1 |  | Activity [5]: Toxic |
| CN(CCO)/N=N/c1ccccc1 |  | Activity [5]: Toxic; logP [4]: 1.71 |
| CC(C)N(C)/N=N/c1ccc(C(N)=O)cc1 | 3.17 |  |
| CNN(C)/N=N/c1ccc(C(N)=O)cc1 |  | Activity [5]: Toxic |
| COc1ccc(C(N)=O)cc1/N=N/N(C)C | 3.95 | logP [3]: 0.44 |
| CN(C)/N=N/c1cc(C(N)=O)cc(C(N)=O)c1 | 3.27 | logP [3]: 0.22 |
| CCN(C)/N=N/c1ccc(NC(N)=O)cc1 | 3.87 |  |
| CN(C)/N=N/c1ccccc1C#N |  | Activity [6]: inactive |
| CN(/N=N/c1nc[nH]c1C(N)=O)c1cccs1 | 3.87 |  |
| CN(/N=N/c1ccc(C(N)=O)cc1)c1cccs1 | 2.9 |  |
| CCCCN(C)/N=N/c1c(C(N)=O)n[nH]c1C | 3.83 |  |

| SMILES | log(1/C) [1] | also measured |
| --- | --- | --- |
| CN(C)/N=N/c1ccc(C(N)=O)cc1C(N)=O | 3.27 |  |
| CN(C)/N=N/c1cccc([N+](=O)[O-])c1 |  | Activity [5]: Toxic; logD [2]: 2.75 |
| CN/N=N/c1ccc(C)cc1 |  | Activity [5]: Toxic |
| CC(C)Cc1nc(/N=N/N(C)C)c(C(N)=O)[nH]1 | 3.53 |  |
| CN(CCO)/N=N/c1ccccc1C#N |  | Activity [5]: Toxic |
| CN(C)/N=N/c1cccc(Cl)c1 |  | Activity [5]: Toxic |
| CC(C)CN(C)/N=N/c1nc[nH]c1C(N)=O | 3.51 |  |
| CN(CCO)/N=N/c1n[nH]cc1C(N)=O | 3.1 |  |
| CN(C)/N=N/c1ccc(NC(N)=O)cc1 | 3.97 | logP [3]: 1.25 |
| CN(C)/N=N/c1ccc(C(=O)O)cc1 | 3.22 |  |
| CC(=O)Nc1ccc(/N=N/N(C)C)cc1 | 4.04 |  |
| CCOC(=O)c1[nH]c(-c2ccccc2)nc1/N=N/N(C)C | 3.48 |  |
| CCCCN(C)/N=N/c1[nH]cnc1C(N)=O | 3.54 |  |
| CCCCOC(=O)c1[nH]cnc1/N=N/N(C)C | 3.53 |  |
| CN/N=N/c1nc[nH]c1C(=O)N1CCCC1 | 3.28 |  |
| CN(C)/N=N/c1ccccc1I |  | Activity [6]: inactive; logP [4]: 3.5 |
| CCCCCCCCN(C)/N=N/c1ccccc1C(=O)O | 3.47 | logP ([3]; read-out: logP): 0.24; logP [4]: 0.24 |
| CN(C)/N=N/c1c(Cl)cc(Cl)cc1C(N)=O | 3.14 |  |
| CN(C)/N=N/c1ccc(CCCC(=O)NN)cc1 | 3.6 |  |
| CN(C)/N=N/c1ccccc1Cl | 3.26 | logP [4]: 2.97 |
| COc1ccc(CN(C)/N=N/c2ccc(C#N)cc2)cc1 | 2.72 |  |
| CCOC(=O)c1nc(C)[nH]c1/N=N/N(C)C | 3.35 |  |
| CN(C)/N=N/c1cc(Cl)cc(C(N)=O)c1Cl | 3.04 |  |
| CN(C)/N=N/c1ccccc1C(=O)NCC(N)=O | 3.25 | logP [3]: 1.17 |
| CN(C)/N=N/c1ccc(C#N)cc1C(N)=O | 3.46 |  |
| CN(C)/N=N/c1ccc(Cl)cc1C(=O)O |  | Activity [6]: inactive |

| SMILES | log(1/C) [1] | also measured |
| --- | --- | --- |
| CN(C)/N=N/c1ccc(Cl)cc1C(N)=O |  | Activity [5]: Toxic |
| CN(C)/N=N/c1ccccc1C(=O)NN |  | Activity [5]: Toxic; logD [2]: 1.28 |
| CCCCCN(C)/N=N/c1nc[nH]c1C(N)=O | 3.58 |  |
| C#CCN(C)/N=N/c1nc[nH]c1C(N)=O | 3.61 |  |
| CN(C)/N=N/c1ccc([N+](=O)[O-])cc1C(=O)O |  | Activity [6]: inactive |
| CCCCCCCCN(C)/N=N/c1ccc(Cl)cc1C(=O)O | 3.14 |  |
| CNC(=O)c1ccccc1/N=N/N(C)C | 3.25 | logP [3]: 1.83 |
| CN(C)/N=N/c1cccnc1 | 3.46 |  |
| CN(CCO)/N=N/c1ccccc1Cl |  | Activity [5]: Toxic |
| CN(C)/N=N/c1ccccc1C(=O)NCC(F)(F)F |  | Activity [6]: inactive |
| Cc1[nH]nc(C(N)=O)c1/N=N/N(C)C | 3.84 |  |
| CN(C)/N=N/c1ccccc1C(F)(F)F |  | Activity [6]: inactive |
| CN(/N=N/c1ccccc1C(=O)NN)C1CCCCC1 | 2.99 |  |
| CONC(=O)c1ccccc1/N=N/N(C)C |  | Activity [5]: Toxic |
| CC(=O)c1cccc(/N=N/N(C)C)c1 | 3.58 |  |
| CCNC(=O)c1ccccc1/N=N/N(C)C | 2.92 |  |
| CN(C)/N=N/c1ccc([N+](=O)[O-])cc1 |  | Activity [5]: Toxic |
| Cc1ccc(/N=N/N(C)C)cc1 | 3.76 |  |
| COC(=O)c1cccc(/N=N/N(C)C)c1 | 3.42 |  |
| Cc1nc(/N=N/N(C)C)c(C(N)=O)[nH]1 | 3.06 |  |
| CN(Cc1ccccc1)/N=N/c1ccccc1 | 3.03 |  |
| CC(=O)N(C)/N=N/c1ccc(C)cc1 | 2.78 | logP ([3]; read-out: logP): 3.13; logD [2]: 3.13 |
| CN(CCO)/N=N/c1[nH]cnc1C(N)=O | 3.12 |  |

Source: ChEMBL document CHEMBL3244339, “Antitumor 1-(X-aryl)-3,3-dialkyltriazenes. 1. Quantitative structure-activity relationships vs. L1210 leukemia in mice” (J Med Chem, 1978)
